Assay results published in patent publication US9730894B2, “Stabilized HME composition with small drug particles” (BOARD OF REGENTS, THE UNIVERSITY OF TEXAS SYSTEM, priority 2004, dated 2017).

Experiments:
[1] = Solubilization of ITZ by the carrier during hot-melt extrusion at 100° C. (DSC, SEM); conditions: extruded at 100° C., confirmed by SEM and DSC
Experimental: A Randcastle Microtruder RCP-0750 hot-melt extruder equipped with a 6 mm round die was operated at 15 RPM, 0.2-0.3 Drive Amps with an Extrusion Temperature of 100° C. to prepare the composition. All powders were blended in a v-shell blender prior to extrusion. Temperature zones were set as follows: zone 1: 90° C., zone 2: 95° C., zone 3: 100° C., die temperature 100° C. The powder blend was placed in a hopper that is located at the head of a vertical screw such that the material is flood fed by gravity. The residence time of the material in the extruder was approximately three minutes. The extrudate was sheared into approximately one foot sections after exiting the die and placed on an aluminum sheets and allowed to cool at ambient conditions.
The fine drug-containing particles and compositions containing them were analyzed by scanning electron microscopy using a Hitachi S-4500 scanning electron microscope. Samples were coated with Au/Pd and an accelerating voltage of 5 kV was used.
Changes in the degree of crystallization of the fine drug-containing particles, either neat or dispersed within a hot-melt extruded composition, were determined and quantified by differential scanning calorimetry. A TA Instruments Model 2920 calorimeter was used to conduct the analyses.

[2] = Dissolution test, USP 27 Type II paddle apparatus; format: physicochemical; conditions: 900 ml 0.1 N HCl, 37° C., 50 rpm, equivalent to 10 mg active
Experimental: The dissolution media was 900 ml of 0.1 N HCl, and was de-aerated with helium for approximately 15 minutes before each dissolution test. In all cases where not otherwise specified, the equivalent to 10 mg of the active ingredient was added to each dissolution vessel.

SMILES: CCC(C)n1ncn(-c2ccc(N3CCN(c4ccc(OCC5COC(Cn6cncn6)(c6ccc(Cl)cc6Cl)O5)cc4)CC3)cc2)c1=O (centres unmarked) [bulk ITZ, itraconazole]
- Solubility of itraconazole in PEO when extruded [1]: substantially insoluble
- ITZ drug release (dissolved) in 10 minutes (FIG. 12) [2]: less than 1%
